One may read the IC50 as the concentration that gives 50% inhibition.

HDM2, sequence (Q00987 17-125): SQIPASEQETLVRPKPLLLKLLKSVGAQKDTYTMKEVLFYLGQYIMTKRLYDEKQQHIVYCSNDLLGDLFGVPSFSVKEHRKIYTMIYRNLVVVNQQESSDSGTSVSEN

The target of this test is HDM2 (Homo sapiens (Human), UniProt Q00987). Nature of the test: HDM2 FRET assay (inhibition of p53 peptide binding to HDM2). The conditions noted are these: truncated HDM2 residues 17 to 125, 0.5 nM; FITC labeled 8-mer peptide 3 nM; two hour incubation at room temperature. The procedure:
Methods: An HDM2 FRET assay was developed to assess the compounds' inhibitory activity towards binding of p53 protein. […] (containing p53 binding surface, Science (1994) 265, 346-355), with N-terminal His and Thioredoxin tag was generated in pET32a expression vector and expressed in E. coli strain BL21(DE3)Rosetta. Protein was purified using Ni-affinity chromatography, followed by size exclusion chromatography using Superdex 75 26/60 column. […] After two hour incubation at room temperature in a humidified chamber plates were read on EnVision plate reader with the following settings: excitation: UV, […], two emission filters: 520 nm and 495 nm respectively. […] IC50 DETERMINATIONS: Dose-response curves were plotted from the inhibition data, from 10 point serial dilutions of inhibitory compounds. Concentration of compound was plotted against em520/Cem495 ratio signal. To generate IC50 values, the dose-response curves were fitted to a standard sigmoidal curve and IC50 values were derived by nonlinear regression analysis.
As for `Cc1c(-c2cc(C(C)C)ccn2)n(Cc2ccc(C(F)(F)F)cc2)c2c(N[C@H](C)C3CCC3)nc(C(=O)O)nc12` [Example 1.11, 4-{[(1R)-1-cyclobutylethyl]amino}-7-methyl-6-[4-(1-methylethyl)pyridin-2-yl]-5-[4-(trifluoromethyl)benzyl]-5H-pyrrolo[3,2-d]pyrimidine-2-carboxylic acid], the IC50 stood at 0.05 µM. The result for `Cc1cccc(-c2cc3nc(C(=O)O)nc(N[C@H](C)C4CCC4)c3n2Cc2ccc(C(F)(F)F)cc2N)c1` [Example 2.1, 5-[2-amino-4-(trifluoromethyl)benzyl]-4-{[(1R)-1-cyclobutylethyl]amino}-6-(3-methylphenyl)-5H-pyrrolo[3,2-d]pyrimidine-2-carboxylic acid] reads 0.011 µM; that for `Cc1cccc(-c2cc3nc(C(=O)O)nc(N[C@H](C)C4CCC4)c3n2Cc2ccc(C(F)(F)F)cn2)c1` [Example 2.2, 4-{[(1R)-1-cyclobutylethyl]amino}-6-(3-methylphenyl)-5-{[5-(trifluoromethyl)pyridin-2-yl]methyl}-5H-pyrrolo[3,2-d]pyrimidine-2-carboxylic acid], 0.844 µM; that for `Cc1cccc(-c2cc3nc(C(=O)O)nc(N[C@H](C)C4CCC4)c3n2Cc2ccc(OC(F)(F)F)cc2)c1` [Example 2.3, 4-{[(1R)-1-cyclobutylethyl]amino}-6-(3-methylphenyl)-5-[4-(trifluoromethoxy)benzyl]-5H-pyrrolo[3,2-d]pyrimidine-2-carboxylic acid], 0.348 µM.

On to `Cc1cccc(-c2cc3nc(C(=O)O)nc(N[C@H](C)C4CCC4)c3n2Cc2ccc(OC(F)(F)F)c(F)c2)c1` [Example 2.4, 4-{[(1R)-1-cyclobutylethyl]amino}-5-[3-fluoro-4-(trifluoromethoxy)benzyl]-6-(3-methylphenyl)-5H-pyrrolo[3,2-d]pyrimidine-2-carboxylic acid], for which the IC50 was 0.267 µM. The result for `COc1cc(OC(F)(F)F)ccc1Cn1c(-c2cccc(C)c2)cc2nc(C(=O)O)nc(N[C@H](C)C3CCC3)c21` [Example 2.5, 4-{[(1R)-1-cyclobutylethyl]amino}-5-[2-methoxy-4-(trifluoromethoxy)benzyl]-6-(3-methylphenyl)-5H-pyrrolo[3,2-d]pyrimidine-2-carboxylic acid] reads 4.37 µM.

On to `Cc1cccc(-c2cc3nc(C(=O)O)nc(N[C@H](C)C4CCC4)c3n2Cc2ccc(OC(F)F)cc2)c1` [Example 2.6, 4-{[(1R)-1-cyclobutylethyl]amino}-5-[4-(difluoromethoxy)benzyl]-6-(3-methylphenyl)-5H-pyrrolo[3,2-d]pyrimidine-2-carboxylic acid], for which the IC50 stood at 1.78 µM. As to `Cc1cccc(-c2cc3nc(C(=O)O)nc(N[C@H](C)C4CCC4)c3n2Cc2ccc(C(F)(F)F)c(F)c2)c1` [Example 2.7, 4-{[(1R)-1-cyclobutylethyl]amino}-5-[3-fluoro-4-(trifluoromethyl)benzyl]-6-(3-methylphenyl)-5H-pyrrolo[3,2-d]pyrimidine-2-carboxylic acid], the IC50 was determined as 0.087 µM. The result for `COc1ccc(Cn2c(-c3cccc(C)c3)cc3nc(C(=O)O)nc(N[C@H](C)C4CCC4)c32)cc1` [Example 2.8, 4-{[(1R)-1-cyclobutylethyl]amino}-5-(4-methoxybenzyl)-6-(3-methylphenyl)-5H-pyrrolo[3,2-d]pyrimidine-2-carboxylic acid] reads 6.19 µM. Turning to `Cc1cccc(-c2cc3nc(C(=O)O)nc(N[C@H](C)C4CCC4)c3n2Cc2ccc(Cl)c(F)c2)c1` [Example 3.1, 5-(4-chloro-3-fluorobenzyl)-4-{[(1R)-1-cyclobutylethyl]amino}-6-(3-methylphenyl)-5H-pyrrolo[3,2-d]pyrimidine-2-carboxylic acid], the IC50 was 0.021 µM. The result for `Cc1cccc(-c2cc3nc(C(=O)O)nc(N[C@H](C)C4CCC4)c3n2Cc2ccc(C(F)F)cc2)c1` [Example 3.2, 4-{[(1R)-1-cyclobutylethyl]amino}-5-[4-(difluoromethyl)benzyl]-6-(3-methylphenyl)-5H-pyrrolo[3,2-d]pyrimidine-2-carboxylic acid] reads 0.53 µM.

As for `Cc1cccc(-c2cc3nc(C(=O)O)nc(N[C@H](C)C4CCC4)c3n2Cc2ccc(C(F)(F)F)nc2)c1` [Example 3.3, 4-{[(1R)-1-cyclobutylethyl]amino}-6-(3-methylphenyl)-5-{[6-(trifluoromethyl)pyridin-3-yl]methyl}-5H-pyrrolo[3,2-d]pyrimidine-2-carboxylic acid], the IC50 came to 0.178 µM. The result for `Cc1cccc(-c2cc3nc(C(=O)O)nc(N[C@H](C)C4CCC4)c3n2Cc2ccc(Br)c(F)c2)c1` [Example 3.4, 5-(4-bromo-3-fluorobenzyl)-4-{[(1R)-1-cyclobutylethyl]amino}-6-(3-methylphenyl)-5H-pyrrolo[3,2-d]pyrimidine-2-carboxylic acid] reads 0.015 µM. `Cc1cccc(-c2cc3nc(C(=O)O)nc(N[C@H](C)C4CCC4)c3n2Cc2ccc(F)c(F)c2)c1` [Example 3.5, 4-{[(1R)-1-cyclobutylethyl]amino}-5-(3,4-difluorobenzyl)-6-(3-methylphenyl)-5H-pyrrolo[3,2-d]pyrimidine-2-carboxylic acid] yielded an IC50 of 0.126 µM.

Molecule `Cc1cccc(-c2cc3nc(C(=O)O)nc(N[C@H](C)C4CCC4)c3n2Cc2ccc(C)c(F)c2)c1` [Example 3.6, 4-{[(1R)-1-cyclobutylethyl]amino}-5-(3-fluoro-4-methylbenzyl)-6-(3-methylphenyl)-5H-pyrrolo[3,2-d]pyrimidine-2-carboxylic acid] gave an IC50 of 0.124 µM. The result for `C[C@H]1CC[C@H](Cn2ccc3nc(C(=O)O)nc(-c4cccc(Cl)c4)c32)CC1` [Example 4.1, 4-(3-chlorophenyl)-5-[(trans-4-methylcyclohexyl)methyl]-5H-pyrrolo[3,2-d]pyrimidine-2-carboxylic acid] reads 0.294 µM; that for `C[C@H]1CC[C@H](Cn2ccc3nc(-c4noc(=O)[nH]4)nc(-c4cccc(Cl)c4)c32)CC1` [Example 4.2, 3-{4-(3-chlorophenyl)-5-[(trans-4-methylcyclohexyl)methyl]-5H-pyrrolo[3,2-d]pyrimidin-2-yl}-1,2,4-oxadiazol-5(4H)-one], 0.132 µM. `C[C@H]1CC[C@H](Cn2ccc3nc(C(=O)O)nc(-c4cncc(Cl)c4)c32)CC1` [Example 4.3, 4-(5-chloropyridin-3-yl)-5-[(trans-4-methylcyclohexyl)methyl]-5H-pyrrolo[3,2-d]pyrimidine-2-carboxylic acid] showed an IC50 of 0.247 µM.

In the case of `C[C@H]1CC[C@H](Cn2ccc3nc(-c4noc(=O)[nH]4)nc(-c4cncc(Cl)c4)c32)CC1` [Example 4.4, 3-{4-(5-chloropyridin-3-yl)-5-[(trans-4-methylcyclohexyl)methyl]-5H-pyrrolo[3,2-d]pyrimidin-2-yl}-1,2,4-oxadiazol-5(4H)-one], the IC50 came out at 0.057 µM. The value for `C[C@H]1CC[C@H](Cn2ccc3nc(-c4n[nH]c(=O)o4)nc(-c4cncc(Cl)c4)c32)CC1` [Example 4.5, 5-{4-(5-chloropyridin-3-yl)-5-[(trans-4-methylcyclohexyl)methyl]-5H-pyrrolo[3,2-d]pyrimidin-2-yl}-1,3,4-oxadiazol-2(3H)-one] was 0.095 µM; that for `Cc1cn(C[C@H]2CC[C@H](C)CC2)c2c(-c3cccc(Cl)c3)nc(C(=O)O)nc12` [Example 5.1, 4-(3-chlorophenyl)-7-methyl-5-[(trans-4-methylcyclohexyl)methyl]-5H-pyrrolo[3,2-d]pyrimidine-2-carboxylic acid] was 0.226 µM. The result for `Cc1cn(C[C@H]2CC[C@H](C)CC2)c2c(-c3cccc(Cl)c3)nc(-c3noc(=O)[nH]3)nc12` [Example 5.2, 3-{4-(3-chlorophenyl)-7-methyl-5-[(trans-4-methylcyclohexyl)methyl]-5H-pyrrolo[3,2-d]pyrimidin-2-yl}-1,2,4-oxadiazol-5(4H)-one] reads 0.107 µM; that for `Cc1cn(C[C@H]2CC[C@H](C)CC2)c2c(-c3cncc(Cl)c3)nc(C(=O)O)nc12` [Example 5.3, 4-(5-chloropyridin-3-yl)-7-methyl-5-[(trans-4-methylcyclohexyl)methyl]-5H-pyrrolo[3,2-d]pyrimidine-2-carboxylic acid], 0.088 µM; that for `Cc1cn(C[C@H]2CC[C@H](C)CC2)c2c(-c3cncc(Cl)c3)nc(-c3noc(=O)[nH]3)nc12` [Example 5.4, 3-{4-(5-chloropyridin-3-yl)-7-methyl-5-[(trans-4-methylcyclohexyl)methyl]-5H-pyrrolo[3,2-d]pyrimidin-2-yl}-1,2,4-oxadiazol-5(4H)-one], 0.036 µM.

Regarding `C[C@H]1CC[C@H](Cn2cc(-c3ccccc3)c3nc(C(=O)O)nc(-c4cncc(Cl)c4)c32)CC1` [Example 5.5, 4-(5-chloropyridin-3-yl)-5-[(trans-4-methylcyclohexyl)methyl]-7-phenyl-5H-pyrrolo[3,2-d]pyrimidine-2-carboxylic acid], the IC50 is 0.072 µM. For the molecule `C[C@H]1CC[C@H](Cn2cc(Cc3ccccc3)c3nc(-c4n[nH]c(=O)o4)nc(-c4cncc(Cl)c4)c32)CC1` [Example 5.6, 5-{7-benzyl-4-(5-chloropyridin-3-yl)-5-[(trans-4-methylcyclohexyl)methyl]-5H-pyrrolo[3,2-d]pyrimidin-2-yl}-1,3,4-oxadiazol-2(3H)-one], the half-maximal inhibitory concentration (IC50) turned out to be 0.054 µM. In turn, `CC(C)Cc1cn(C[C@H]2CC[C@H](C)CC2)c2c(-c3cncc(Cl)c3)nc(C(=O)O)nc12` [Example 5.7, 4-(5-chloropyridin-3-yl)-5-[(trans-4-methylcyclohexyl)methyl]-7-(2-methylpropyl)-5H-pyrrolo[3,2-d]pyrimidine-2-carboxylic acid] had an IC50 of 0.071 µM.

Values taken from US9637493B2, “Substituted pyrrolopyrimidines as HDM2 inhibitors” (Merck Sharp & Dohme Corp., priority 2012, dated 2017).
